This passage reports DC50, Dmax and IC50 results from patent US20260167622A1, “PAN-KRAS DEGRADING AGENT, AND PREPARATION METHOD THEREFOR AND USE THEREOF” (LEADINGTAC PHARMACEUTICAL (SHAOXING) CO., LTD., priority 2022, published 2026).

Common to all, as to type: cell-based
In assay [1] the target is T1, KRAS G12V protein in SW620 cells (Homo sapiens, UniProt P01116, G12V).
T1 construct: endogenous in cells; host or cells: SW620
Description: KRAS degradation assay (Western Blot) in SW620 cells. The settings on record: for DC50: 24 h; for Dmax: SW-620, 24 h. The method, boiled down:
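5×10^5 cells/well; cpd 0.03–3000 nM final, 0.25% DMSO, 24 h, 37 °C/5% CO2. RIPA lysis, 5 µg protein/lane, anti-KRAS WB, β-actin loading ref. DC50/Dmax by nonlinear fit.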
A general note: A western blot detects proteins with antibodies after separation by electrophoresis.

The target of assay [2] is T2, KRAS WT (expanded) protein in MKN1 cells (Homo sapiens, UniProt P01116).
T2 construct: endogenous in cells; host or cells: MKN1 (MKN-1)
T2 sequence (P01116 1-188 isoform P01116-2): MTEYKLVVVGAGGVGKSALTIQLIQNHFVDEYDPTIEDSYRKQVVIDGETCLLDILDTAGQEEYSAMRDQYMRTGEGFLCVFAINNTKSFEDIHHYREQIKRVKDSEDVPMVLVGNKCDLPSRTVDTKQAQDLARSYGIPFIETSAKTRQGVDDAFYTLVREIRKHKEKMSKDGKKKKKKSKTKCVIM
Kind of assay: KRAS degradation assay (Western Blot) in MKN1 cells. As to conditions: for DC50: 24 h; for Dmax: MKN-1, 24 h. From the text:
(§1) Test Example 5: KRAS G12C, KRAS G12D, KRAS G12V, KRAS G13D, and KRAS WT (Expanded) Degradation Assays
(§2) The degradation effect of the compounds on KRAS was investigated on KRAS G12C mutant human non-small cell lung cancer cell NCI-H358, KRAS G12D mutant human metastatic pancreatic cancer cell AsPc-1, KRAS G12D mutant human lung cancer cell A427, KRAS G12V mutant human colorectal cancer cell SW620, KRAS G12V mutant human lung cancer cell SW900, KRAS G13D mutant human colorectal cancer epithelial cell DLD-1, and KRAS WT human gastric cancer cell MKN-1. The specific procedures were as follows: 0.95 mL of cells were seeded into each well of a 24-well cell culture plate to achieve a cell density of 5×10^5 cells/well; and the cell plate was incubated in an incubator at 37° C. with 5% CO2 overnight. Then 50 μL of the compound solution after dilution was added to each of the wells with the corresponding cells, so that the final concentration of the compound was in a range of 0.03-3000 nM. The final concentration of DMSO was 0.25%. After the compounds were added, the cell plate was incubated in an incubator at 37° C. with 5% CO2 for 24 h. The culture medium in the 24-well cell culture plate was then removed, and the plate was washed twice with 1×PBS (KeyGEN). 120 μL of RIPA (strong) lysis buffer (Beyotime) (supplemented with 1 mM phenylmethylsulfonyl fluoride, a protease inhibitor mixture (Beyotime), and a protease phosphatase inhibitor mixture (Beyotime)) was added to lyse adherent SW900 cells at the bottom of the cell culture plate. After the plate was left to stand on ice for 30 min, the protein lysate in each well was transferred to a 1.5 mL centrifuge tube and centrifuged at 15000 g for 20 min at 4° C. The cell lysate supernatants after centrifugation were cryopreserved in a refrigerator at −80° C. for later use.
(§3) After the samples of the cell lysate supernatants that had been prepared were thawed from the refrigerator at −80° C., the total protein concentrations of the cell lysates were determined using a BCA protein quantification kit (Tiangen). The total protein concentrations of the samples were then adjusted to 0.5 μg/μL with PBS and 5×SDS-PAGE protein loading buffer (Beyotime), and the samples were incubated in a water bath at 100° C. for 15 min. The samples were then incubated in an ice bath for 5 min and centrifuged at 14000 g for 1 min at 4° C., and the supernatants were mixed well as loading samples for the Western Blot assay. The samples were loaded into wells of a 10% precast gel (KeyGEN) with a loading volume of 10 μL (total protein: 5 μg), a sufficient Tris-MOPS-SDS running buffer (Adamas) was added, and then electrophoresis was performed at a constant voltage of 120 V for 55 min. After the electrophoresis, the proteins on the gel were transferred to PVDF membranes at a constant current of 250 mA for 55 min. After the membrane transfer, the PVDF membranes were incubated in 1× Quick Block blocking buffer (Beyotime)at room temperature for 30 min. After the blocking, the PVDF membranes were separately incubated at 4° C. overnight with the KRAS antibody (Abcam) diluted in a ratio of 1:1000 and the β-actin antibody (Abcam) diluted in a ratio of 1:2000 in 5% BSA as the diluent, and then washed with 1×TBST buffer (2.4 g of Tris, 8.8 g of NaCl, 1.5 mL of Tween 20, with pH adjusted to 7.4, with the volume brought to 1 L) 3 times for 10 min/time. The membranes were incubated with a secondary antibody (Abcam) diluted in 5% BSA at room temperature for 2 h, and then washed with 1×TBST buffer 3 times for 10 min/time. Finally, the membranes were incubated with Clarity Western ECL Substrate (BIO-RAD) for 5 min for luminescence and color development, and a ChemiScope 6200 Touch chemiluminescence imaging system (Clinx) was used for color development and protein mapping. Gray value analysis of the protein maps was performed using the chemiluminescence analysis software (Clinx). […]

For assay [3], the target named is T3, KRAS G12C protein in NCI-H358 cells (Homo sapiens, UniProt P01116, G12C).
T3 construct: endogenous in cells; host or cells: NCI-H358
T3 sequence (P01116 1-188 isoform P01116-2 G12C): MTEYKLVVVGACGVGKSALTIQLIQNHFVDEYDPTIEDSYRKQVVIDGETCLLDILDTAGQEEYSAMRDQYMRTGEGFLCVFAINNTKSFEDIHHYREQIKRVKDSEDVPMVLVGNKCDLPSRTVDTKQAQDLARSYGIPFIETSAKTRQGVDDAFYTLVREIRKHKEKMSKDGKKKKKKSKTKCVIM
Kind of assay: KRAS degradation assay (Western Blot) in NCI-H358 cells. The settings on record: 24 h.
Source text: as §1, §2, §3

The target in assay [4] is T4, KRAS G13D protein in DLD-1 cells (Homo sapiens, UniProt P01116, G13D).
T4 construct: endogenous in cells; host or cells: DLD-1
T4 sequence (P01116 1-188 isoform P01116-2 G13D): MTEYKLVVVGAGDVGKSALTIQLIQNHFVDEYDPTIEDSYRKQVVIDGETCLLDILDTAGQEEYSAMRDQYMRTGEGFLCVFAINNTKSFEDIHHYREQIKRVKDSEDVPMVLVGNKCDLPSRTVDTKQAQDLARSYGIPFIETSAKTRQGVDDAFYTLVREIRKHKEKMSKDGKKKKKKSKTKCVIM
Description: KRAS degradation assay (Western Blot) in DLD-1 cells. As to conditions: 24 h. The method in brief: (§4)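 AsPc-1, A427, DLD-1 and SW900 cells (5×10^5/well) were treated 24 h at 37 °C with compound at 0.03-3000 nM final (0.25% DMSO). KRAS in lysates was detected by Western blot (5 μg protein, ECL), normalized to β-actin and compared with control to derive DC50 and Dmax.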

For assay [5], the target named is T5, KRAS G12D protein in AsPc-1 cells (Homo sapiens, UniProt P01116, G12D).
T5 construct: endogenous in cells; host or cells: AsPc-1
T5 sequence (P01116 1-188 isoform P01116-2 G12D): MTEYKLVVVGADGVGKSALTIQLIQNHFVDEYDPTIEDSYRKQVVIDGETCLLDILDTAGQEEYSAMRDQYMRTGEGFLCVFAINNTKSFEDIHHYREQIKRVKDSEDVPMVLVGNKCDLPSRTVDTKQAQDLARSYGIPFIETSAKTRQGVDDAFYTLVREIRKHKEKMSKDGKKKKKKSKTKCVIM
Kind of assay: KRAS degradation assay (Western Blot) in AsPc-1 cells. The settings on record: for DC50: 24 h; for Dmax: ASPC1, 24 h. The method, boiled down:
as §4

Assay [6] concerns KRAS G12D mutant human metastatic pancreatic cancer cell AsPc-1. Description: 3D cell proliferation inhibition assay, AsPc-1. The settings on record: ASPC1, 168 h, 3D culture, 7 days, CTG. The method in brief:
(§5)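 Cells were seeded in low-adsorption 96-well plates at 5×10^2 cells/well (MKN1 at 1×10^3) with compounds at final 10000-0.026 nM, 0.2% DMSO, and grown 7 days at 37° C. CTG luminescence gave inhibition relative to DMSO and medium-only controls, and IC50 came from a log-concentration curve fit.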

In assay [7] the test system is KRAS G12C mutant human non-small cell lung cancer cell NCI-H358. Kind of assay: 3D cell proliferation inhibition assay, NCI-H358. The settings on record: NCI-H358, 168 h, 3D culture, 7 days, CTG. The method in brief: as §5
The subject of assay [8] is KRAS G12V mutant human colorectal cancer cell SW620. Description: 3D cell proliferation inhibition assay, SW620. As to conditions: SW-620, 168 h, 3D culture, 7 days, CTG. The method, boiled down:
as §5

The test system of assay [9] is KRAS G13D mutant human colorectal cancer epithelial cell DLD-1. Description: 3D cell proliferation inhibition assay, DLD-1. The settings on record: DLD-1, 168 h, 3D culture, 7 days, CTG. The method, boiled down:
as §5

Assay [10] relates to KRAS WT human gastric cancer cell MKN1. Kind of assay: 3D cell proliferation inhibition assay, MKN1. The settings on record: MKN-1, 168 h, 3D culture, 7 days, CTG. The method in brief: as §5

For orientation: DC50 means the concentration giving 50% degradation. A high value points to a less potent degrader. By Dmax is commonly meant the largest share of the target that was removed. As usually defined, the IC50 is the concentration that inhibits the measured activity by half.

T1 sequence (P01116 1-188 isoform P01116-2 G12V): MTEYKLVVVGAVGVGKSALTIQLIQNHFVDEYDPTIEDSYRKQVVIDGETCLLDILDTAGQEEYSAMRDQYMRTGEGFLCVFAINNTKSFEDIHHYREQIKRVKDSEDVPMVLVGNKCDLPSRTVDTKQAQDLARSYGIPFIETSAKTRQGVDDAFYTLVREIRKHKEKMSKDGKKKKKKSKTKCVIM

Take `C#Cc1c(F)ccc2cc(O)cc(-c3ncc4c(N5CCC[C@@](C)(O)C5)nc(OC[C@H](C)CN5CCN(CC6CCC7(CC6)CCN(C(=O)c6ccc(C)c(N8CCC(=O)NC8=O)c6)CC7)CC5)nc4c3F)c12` [Example 47, 1-(5-(9-((4-((R)-3-((7-(8-ethynyl-7-fluoro-3-hydroxynaphthalen-1-yl)-8-fluoro-4-((R)-3-hydroxy-3-methylpiperidin-1-yl)pyrido[4,3-d]pyrimidin-2-yl)oxy)-2-methylpropyl)piperazin-1-yl)methyl)-3-azaspiro[5.5]undecane-3-carbonyl)-2-methylphenyl)dihydropyrimidine-2,4(1H,3H)-dione]: the DC50 was 0.99 nM in assay [1]; 0.28 nM in [2]; 1.7 nM in [3]; 2.05 nM in assay [4]; 18.7 nM in assay [5]. Besides, the maximal degradation (Dmax) in [1] worked out at 100%; in assay [2], 97.4%; in assay [3], 88.9%; in [4], 100%; in assay [5], 93.3%. In addition, the IC50 in assay [6] was 6.48 nM; in assay [7] it was 2.33 nM; in assay [8], 1.92 nM; in assay [9], 3.55 nM; in assay [10], 2.33 nM.

`C#Cc1c(F)ccc2cc(O)cc(-c3ncc4c(N5CCC[C@@](C)(O)C5)nc(OCC5(CN6CCN(CC7CCC8(CC7)CCN(C(=O)c7cc(N9CCC(=O)NC9=O)c(C)cc7F)CC8)CC6)CC5)nc4c3F)c12` [Example 91, (R)-1-(5-(9-((4-((1-(((7-(8-ethynyl-7-fluoro-3-hydroxynaphthalen-1-yl)-8-fluoro-4-(3-hydroxy-3-methylpiperidin-1-yl)pyrido[4,3-d]pyrimidin-2-yl)oxy)methyl)cyclopropyl)methyl)piperazin-1-yl)methyl)-3-azaspiro[5.5]undecane-3-carbonyl)-4-fluoro-2-methylphenyl)dihydropyrimidine-2,4(1H,3H)-dione]: the DC50 in assay [1] turned out to be 5.16 nM; in [2], 1.15 nM; in assay [3], 6.04 nM; in [4], 8.8 nM. The Dmax in assay [1] was determined as 100%; in assay [2] it was 98.9%; in assay [3], 92.7%; in assay [4], 100%. Moreover, the IC50 in [6] was found to be 4.26 nM; in assay [7], 2.13 nM; in assay [8], 1.92 nM; in assay [9], 8.33 nM; in [10], 5.41 nM.

As to `[2H]C([2H])([2H])Oc1ccc(C(=O)N2CCC3(CCC(CN4CCN(C[C@@H](C)COc5nc(N6CCC[C@@](C)(O)C6)c6cnc(-c7cc(O)cc8ccc(F)c(C#C)c78)c(F)c6n5)CC4)CC3)CC2)cc1N1CCC(=O)NC1=O` [Example 164, 1-(5-(9-((4-((R)-3-((7-(8-ethynyl-7-fluoro-3-hydroxynaphthalen-1-yl)-8-fluoro-4-((R)-3-hydroxy-3-methylpiperidin-1-yl)pyrido[4,3-d]pyrimidin-2-yl)oxy)-2-methylpropyl)piperazin-1-yl)methyl)-3-azaspiro[5.5]undecane-3-carbonyl)-2-(methoxy-d3)phenyl)dihydropyrimidine-2,4(1H,3H)-dione], the half-maximal degradation concentration (DC50) in [1] was 7.48 nM; in assay [2], 1.25 nM; in assay [3], 1.11 nM; in [4] it was 4.39 nM; in assay [5] it was 5.91 nM. In addition, the Dmax in assay [1] was 99.5%; in [2], 99.5%; in assay [3] it was 98.2%; in assay [4], 100%; in assay [5], 99.6%. Further, the concentration for half-maximal inhibition (IC50) was determined as 12.1 nM in [6]; 4.66 nM in assay [7]; 3.76 nM in assay [8]; 3.9 nM in assay [9]; 22.6 nM in assay [10].

`[2H]C([2H])([2H])Oc1ccc(C(=O)N2CCC3(CCC(CN4CCN(CC5(COc6nc(N7CCC[C@@](C)(O)C7)c7cnc(-c8cc(O)cc9ccc(F)c(C#C)c89)c(F)c7n6)CC5)CC4)CC3)CC2)cc1N1CCC(=O)NC1=O` [Example 170, (R)-1-(5-(9-((4-((1-(((7-(8-ethynyl-7-fluoro-3-hydroxynaphthalen-1-yl)-8-fluoro-4-(3-hydroxy-3-methylpiperidin-1-yl)pyrido[4,3-d]pyrimidin-2-yl)oxy)methyl)cyclopropyl)methyl)piperazin-1-yl)methyl)-3-azaspiro[5.5]undecane-3-carbonyl)-2-(methoxy-d3)phenyl)dihydropyrimidine-2,4(1H,3H)-dione]: the DC50 in [1] was 2.35 nM; in [2] it was 0.76 nM; in assay [3], 2.65 nM; in [4], 1.96 nM; in [5], 5.53 nM. Moreover, the maximal degradation (Dmax) was found to be 97.7% in assay [1]; 99.3% in assay [2]; 96.1% in assay [3]; 99.9% in assay [4]; 100% in assay [5]. Further, the IC50 was 6.31 nM in assay [6]; 2.49 nM in assay [7]; 2.59 nM in [8]; 6.28 nM in assay [9]; 6.7 nM in assay [10].
